Source: patent publication EP0686425A1, “PROCESS FOR PRODUCING MICROCAPSULE OF HYDROPHOBIC DRUG” (SANSUI CO., LTD., priority 1993, dated 1995)

How the values were obtained:
[1] = cited from earlier work; for solubility in water: temperature not given
[2] = system: Japan white breeding rabbits; conditions: rabbit, in vivo
Experimental: Six medically inspected Japan white breeding rabbits (conventional) were given a haircut along the spine and 6 spots of 2x3 cm each were closed patched with 0.5 g of Composition No.6 powder or 0.25 g of a powder of the compound represented by chemical formula 2 using bandage and gauze. Evaluation was conducted for the degree of erythema, scab formation and edema formation at a time interval of after 4 hours, 1 day, 2 days, 3 days, 4 days and 5 days.
Evaluation standard (Draize method)
From the above table, the following primary irritancy was obtained. Irritation index was obtained from Equation 1. Irritation index was obtained from the following table. Irritation index and safety classification are as follows. [formula]
Evaluation was conducted according to the method employed in Example 6.

[3] = Elution test of microcapsule powder in Isopal G; format: physicochemical; conditions: unencapsulated compound of chemical formula 1, temperature not given
Experimental: Elution test was conducted on microcapsule powder using Isopal G (aliphatic solvent EXXON Chemical company) which dissolves the compound of the chemical formula 1 in an optional rate. […] of the capsule powder was added to 10ml of Isopal G, and the mixture was maintained at room temperature or at 40 °C for 12 hours, and the amount of the compound of the chemical formula 1 eluted from the microcapsules was determined by gas chromatography. The rate of elution (active ingredient in Isopal G/added amount of active ingredient) was calculated.

Row | SMILES | water solubility (25 °C) [1] | Skin irritation, safety classification (irritation index) [2] | solubility in water [1] [ppm] | rate of elution (active ingredient in Isopal G/added amount of active ingredient) [3] [% elution]
1 | CCCCCCCCn1sc(Cl)c(Cl)c1=O [Compound of formula 4, 4,5-Dichloro-2-n-octyl-4-isothiazoline-3-one] | 6 ppm | strong irritation | – | –
2 | N#CSCSc1nc2ccccc2s1 [Compound of the chemical formula 7, thiocyano methylthiobenzothiazol] | – | medium irritant | 100 | –
3 | S=C=Nc1ccc(Cl)c(Cl)c1 [Unencapsulated, 3,4-dichlorophenyl-isothiocyanate] | – | – | – | 100
4 | O=S1(=O)CC(Cl)(Cl)C(Cl)(Cl)C1 [compound of the chemical formula 2, Tetrachlorotetrahydrothiophene-1,1-dioxide] | about 900 ppm | – | – | –
5 | CNC(=O)Oc1cccc2c1OC(C)(C)C2 [compound of the chemical formula 6, 2,3-dihydro-2,2-dimethylbenzofuran-7-yl-methylcarbamate] | – | – | 700 | –
